In patent US9303042B2, “Triazolothienopyrimidine compound inhibitors of urea transporters and methods of using inhibitors” (The Regents of the University of California, priority 2012, dated 2016):

Key:
UT-A1 = target: T1, UT-A1 (Rattus norvegicus, UniProt Q62668); assay: Transepithelial urea transport in MDCK cells stably expressing UT-A1; type: cell-based; conditions: UTBinh-14 10 μM, forskolin
T1 construct: expressed in transfected cells; host or cells: MDCK cells (MDCK-UT-A1), obtained as described in cited literature
T1 sequence (Q62668 1-929): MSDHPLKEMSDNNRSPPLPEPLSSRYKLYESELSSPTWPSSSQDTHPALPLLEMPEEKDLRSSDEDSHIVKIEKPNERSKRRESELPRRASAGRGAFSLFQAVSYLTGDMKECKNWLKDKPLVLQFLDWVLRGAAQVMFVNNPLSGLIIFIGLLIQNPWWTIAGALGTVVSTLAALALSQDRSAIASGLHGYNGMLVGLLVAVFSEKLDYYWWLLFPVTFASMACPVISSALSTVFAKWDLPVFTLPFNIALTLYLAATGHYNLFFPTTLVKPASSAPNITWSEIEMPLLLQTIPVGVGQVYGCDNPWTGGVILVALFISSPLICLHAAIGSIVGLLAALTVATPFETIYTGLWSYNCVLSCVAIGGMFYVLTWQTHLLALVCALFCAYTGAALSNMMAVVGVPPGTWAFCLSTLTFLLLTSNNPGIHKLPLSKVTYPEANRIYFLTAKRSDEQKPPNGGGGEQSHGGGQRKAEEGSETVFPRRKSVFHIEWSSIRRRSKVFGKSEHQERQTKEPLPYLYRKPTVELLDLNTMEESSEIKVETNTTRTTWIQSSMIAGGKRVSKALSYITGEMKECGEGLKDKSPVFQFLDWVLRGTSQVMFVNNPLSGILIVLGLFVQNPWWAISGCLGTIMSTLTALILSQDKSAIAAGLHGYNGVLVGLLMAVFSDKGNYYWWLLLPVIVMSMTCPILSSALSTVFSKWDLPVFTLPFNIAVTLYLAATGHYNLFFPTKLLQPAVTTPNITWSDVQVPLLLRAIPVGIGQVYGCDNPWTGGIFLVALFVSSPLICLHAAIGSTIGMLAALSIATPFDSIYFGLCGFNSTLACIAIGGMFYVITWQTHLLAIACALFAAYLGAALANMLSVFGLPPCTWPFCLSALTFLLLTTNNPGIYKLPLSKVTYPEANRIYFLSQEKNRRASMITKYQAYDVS
Description: (§1) UT-B selectivity and cytotoxicity were studied. Because of sequence similarities between UT-B and UT-A isoforms, UT-A inhibition was measured. Transepithelial urea transport was measured in MDCK cells stably expressing UT-A1, UT-A3, and UT-B. UT-A1 and UT-A3 are cAMP-regulated urea transporters expressed in kidney tubule epithelia (see, e.g., Frohlich et al., Am. J. Physiol. Cell Physiol. 291:C600-606 (2006); Tickle et al., Am. J. Physiol. Regul. Integr. Comp Physiol 0.297: R323-329 (2009); Stewart et al., Am. J. Physiol. Renal Physiol. 292:F1157-63 (2006)). MDCK cells were cultured on collagen-coated porous filters for measurement of urea accumulation in the apical solution following addition of urea to the basolateral solution.
(§2) cDNAs encoding mouse UT-A3 and UT-B were cloned into pcDNA3.1 and used to generate stably transfected MDCK cell lines. MDCK cells stably expressing rat UT-A1 (MDCK-UT-A1) (see, e.g., Frohlich et al., supra) were obtained as described (see, e.g., Levin et al., FASEB J., supra). Cells were cultured in DMEM containing 10% FBS and 0.5 mg/mL G418. […] Urea flux in the basolateral-to-apical direction across unstimulated and forskolin-stimulated cell layers was measured in response to a 15-mM urea gradient. […]

UT-B = target: T2, UT-B (Mus musculus, UniProt Q8VHL0); assay: Transepithelial urea transport in MDCK cells stably expressing UT-B; type: cell-based; conditions: UTBinh-14 10 μM
T2 sequence (Q8VHL0 1-384): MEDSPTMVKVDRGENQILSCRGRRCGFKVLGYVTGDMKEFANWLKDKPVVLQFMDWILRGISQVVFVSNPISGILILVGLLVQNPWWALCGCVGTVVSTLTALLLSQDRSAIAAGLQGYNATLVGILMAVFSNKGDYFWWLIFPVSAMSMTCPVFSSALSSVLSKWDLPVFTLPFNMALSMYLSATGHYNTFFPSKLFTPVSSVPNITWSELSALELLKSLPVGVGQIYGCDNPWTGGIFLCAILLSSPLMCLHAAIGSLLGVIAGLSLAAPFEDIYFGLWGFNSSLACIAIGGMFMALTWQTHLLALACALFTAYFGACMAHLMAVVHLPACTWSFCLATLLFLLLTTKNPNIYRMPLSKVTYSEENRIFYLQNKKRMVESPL
Description: as §1, §2

[1] = LC/MS analysis of compound in mouse kidney, blood and urine
Description: In some studies, mice were placed on low, normal or […] diets (4%, 20% or 40% casein, Harlan Labs.) for 1 week prior study of dDAVP effects. […] Urea concentration was determined by a colorimetric enzymatic assay as described above. Measurements were also done in the absence of dDAVP in which urine was collected during free access to food and water.
Kidneys were weighed, mixed with acetic acid (100 μL per 1 g tissue) and ethyl acetate (10 mL per 1 g tissue), and homogenized.

[2] = for several hours following a single intraperitoneal administration

## CCc1ccc(S(=O)(=O)c2nnn3c2nc(NCc2cccs2)c2sccc23)cc1 [UTBinh-14, [3-(4-Ethyl-benzenesulfonyl)-thieno[2,3-e][1,2,3]triazolo[1,5-a]pyrimidin-5-yl]-thiophen-2-ylmethylamine]
UT-A1
  inhibition of UT-A1 facilitated urea transport: little inhibition
UT-B
  inhibition of UT-B facilitated urea transport: strongly inhibited
[1]; for at least 4 h after single intraperitoneal 300 μg
  concentration in kidney: greater than 1 μM
[1]; [2]
  concentration in blood: greater than 1 μM
  concentration in urine: greater than 1 μM
[1]; single intraperitoneal 300 μg, normalized to kidney water volume
  Peak concentration in kidney: approximately 10 μM
